According to patent publication US20260014210A1, “SYMBIOTIC BACTERIUM IN HUMANS FOR PROMOTING HAIR GROWTH AND USE THEREOF” (priority 2022, published 2026):

Legend:
ShC4 strain = experiment: ShC4 antibiotic sensitivity test (antibiotic sensitivity tablets); assay type: cell-based, Staphylococcus hominis; conditions: for Mean diameter (mm) of inhibitory ring: antibiotic content per tablet, 36±1° C., 24 hours, three replicates; for sensitivity of ShC4 strain to the antibiotic (in words): summary of Table 1
[1] = tested on: Dunkin Hartley guinea pigs; conditions: 200 μL applied on D0, D7, D14, provocation D28; ShC4 2E10 CFU; scored to 72 hours after stimulation
[2] = standard for tetracycline and minocycline
[3] = standard for penicillin and ampicillin
[4] = standard for oxacillin and piperacillin

| Molecule | Mean diameter (mm) of inhibitory ring (ShC4 strain) [mm] | sensitivity of ShC4 strain to the antibiotic (in words) (ShC4 strain) | further results |
| --- | --- | --- | --- |
| CN(C)[C@@H]1C(O)=C(C(N)=O)C(=O)[C@@]2(O)C(O)=C3C(=O)c4c(O)cccc4[C@@](C)(O)[C@H]3C[C@@H]12 [tetracycline] | 25.85 |  | Sensitivity (ShC4 strain; [2]): S (≥19) |
| cotrimoxazole | 0 | resistance |  |
| CC1(C)S[C@@H]2[C@H](NC(=O)[C@H](N)c3ccccc3)C(=O)N2[C@H]1C(=O)O [ampicillin] | 16.69 | resistance | Sensitivity (ShC4 strain; [3]): R (≤28) |
| CCN1CCN(C(=O)N[C@@H](C(=O)N[C@@H]2C(=O)N3[C@@H]2SC(C)(C)[C@@H]3C(=O)O)c2ccccc2)C(=O)C1=O [Piperacillin] | 18.86 | sensitive | Sensitivity (ShC4 strain; [4]): S (≥18) |
| CC[C@H]1OC(=O)[C@H](C)[C@@H](O[C@H]2C[C@@](C)(OC)[C@@H](O)[C@H](C)O2)[C@H](C)[C@@H](O[C@@H]2O[C@H](C)C[C@H](N(C)C)[C@H]2O)[C@](C)(O)C[C@@H](C)C(=O)[C@H](C)[C@@H](O)[C@]1(C)O [erythromycin] | 23.96 | sensitive | Sensitivity (ShC4 strain; standard for erythromycin): S (≥23) |
| CN(C)c1ccc(O)c2c1C[C@H]1C[C@H]3[C@H](N(C)C)C(O)=C(C(N)=O)C(=O)[C@@]3(O)C(O)=C1C2=O [minocycline] | 29.33 |  | Sensitivity (ShC4 strain; [2]): S (≥19) |
| Cc1onc(-c2ccccc2)c1C(=O)N[C@@H]1C(=O)N2[C@@H]1SC(C)(C)[C@@H]2C(=O)O [Oxacillin (OX), Oxacillin] | 29.4 | sensitive | Sensitivity (ShC4 strain; [4]): S (≥18) |
| Penicillin [Penicillin (P)] | 15.72 | resistance | Sensitivity (ShC4 strain; [3]): R (≤28) |
| 2,4-dinitrochlorobenzene [CDNB] |  |  | allergy rate [1]: 100% |
